Consider 31 molecules from patent publication US6630472B1, “Compounds, pharmaceutical compositions, and methods for stimulating neuronal growth and elongation” (priority 1998, dated 2003).

Each structure is given as a SMILES string. pKi: −log10 of the molar value.

Sequence of FKBP12 (P62942 whole entry, species assumed): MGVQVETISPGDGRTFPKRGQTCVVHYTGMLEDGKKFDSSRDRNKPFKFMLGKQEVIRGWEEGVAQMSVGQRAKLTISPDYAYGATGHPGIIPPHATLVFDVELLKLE

The target of one data set is FKBP12 (Homo sapiens, UniProt P62942). In words: rotamase inhibition assay (N-succinyl-Ala-Ala-Pro-Phe-p-nitroanilide, chymotrypsin-coupled). It is filed as biochemical. The settings on record: Rotamase Ki(app). On the procedure:
In the rotamase inhibition assay, isomerization of an artificial substrate N-succinyl-Ala-Ala-Pro-Phe-p-nitroanilide is followed spectrophotometrically. The assay includes the cis form of the substrate, FKBP12, the compound being tested, and chymotrypsin. Chymotrypsin is able to cleave p-nitroaniline from the trans form of the substrate, but not from the cis form. Release of p-nitroaniline is measured spectrophotometrically. Using this assay, various amounts of the FKBP rotamase-inhibiting compounds of formula (I-a) or (I-b) were added to cis-N-succinyl-alanine-alanine-proline-phenylalanine-para-nitroaniline (Bachem, 3132 Kashiwa Street, Torrance, Calif. 90505) in the presence of FKBP12 and chymotrypsin. Spectrophotometric measurements of p-nitroaniline concentrations allowed estimation of the apparent Ki values, which are provided in Table 1 below.
The molecule `COc1cc(OC)cc(N2C=C3C4CCCC(C(=O)N3CC2=O)N4C(=O)C(=O)c2cc(OC)c(OC)c(OC)c2)c1` (stereo not shown) [Compound 142] had a pKi of 7.27.

Still in this data set, the particulars now being: apparent Ki; NI = no inhibition at the concentrations tested; read-out: Rotamase Ki(app).
Consider `COC1(C(=O)C(=O)N2C3CCCC2C2=CN(C4CCCC4)C(=O)CN2C3=O)CCCC1` (stereo not shown) [Compound 116], for which the pKi was 6.02.

Regarding `COc1cc(C(=O)C(=O)N2C3CCCC2C2=CN(C4CCCC4)C(=O)CN2C3=O)cc(OC)c1OC` (stereo not shown) [Compound 117], the pKi was 7.08.

For `CCC(C)(C)C(=O)C(=O)N1C2CCCC1C1=CN(C3CCCC3)C(=O)CN1C2=O` (stereo not shown) [Compound 118], the negative logarithm of the Ki (pKi) is 6.00.

Consider `COCOC1(C(=O)C(=O)N2[C@@H]3CCC[C@H]2C(=O)N2CC(=O)N(CC(OC)OC)C[C@H]32)CCCC1` [Compound 119], for which the negative-log Ki (pKi) is under 4.40.

In the case of `COC[C@@H]1CC[C@@H](C)[C@](O)(C(=O)C(=O)N2C3CCCC2C(=O)N(CCCCc2ccccc2)C3)C1` (stereo partly shown) [Compound 120], the pKi is 5.60.

As for `CC(=O)OCC1(C(=O)C(=O)N2C3CCCC2C2=CN(C4CCCC4)C(=O)CN2C3=O)CCCC1` (stereo not shown) [Compound 121], the pKi was 6.11.

Turning to `COc1cc(C(=O)C(=O)N2C3CCCC2C2=CN(CC4CC4)C(=O)CN2C3=O)cc(OC)c1OC` (stereo not shown) [Compound 122], the pKi was 6.82.

In the case of `CCC(C)(C)C(=O)C(=O)N1C2CCCC1C1=CN(CC3CC3)C(=O)CN1C2=O` (stereo not shown) [Compound 123], the pKi is 5.92.

Consider `CC(=O)OCC1(C(=O)C(=O)N2C3CCCC2C2=CN(CC4CC4)C(=O)CN2C3=O)CCCC1` (stereo not shown) [Compound 124], for which the pKi was 6.42.

Consider `COCOC1(C(=O)C(=O)N2C3CCCC2C2=CN(C4CCCC4)C(=O)CN2C3=O)CCCC1` (stereo not shown) [Compound 135], for which the pKi was 5.85.

In the case of `COCOC1(C(=O)C(=O)N2C3CCC[C@@H]2[C@@H]2Cc4c(cc(OC)cc4OC)CN2C3=O)CCCC1` [Compound 136], the pKi was 5.62.

For `COC1(C(=O)C(=O)N2[C@@H]3CCC[C@H]2C(=O)N2Cc4c(cc(C(F)(F)F)cc4C(F)(F)F)C[C@@H]32)CCCC1` [Compound 137], the pKi is 5.01.

As for `COC[C@@H]1CC[C@@H](C)[C@](O)(C(=O)C(=O)N2C3CCCC2C(=O)N(Cc2ccc4ccccc4c2)C3)C1` (stereo partly shown) [Compound 138], the pKi was 5.89.

With `COc1cc(C(=O)C(=O)N2C3CCCC2C(=O)N(Cc2ccc4ccccc4c2)C3)cc(OC)c1OC` (stereo not shown) [Compound 139], the pKi is 6.45.

As for `COC[C@@H]1CC[C@@H](C)[C@](O)(C(=O)C(=O)N2C3CCCC2C2=CN(C4CCCC4)C(=O)CN2C3=O)C1` (stereo partly shown) [Compound 140], the pKi was 5.00.

For the molecule `COCOC1(C(=O)C(=O)N2C3CCC[C@@H]2[C@@H]2Cc4cc(OC(F)(F)F)ccc4CN2C3=O)CCCC1` [Compound 141], the pKi was 5.40.

For `COc1cc(OC)cc(N2C=C3C4CCCC(C(=O)N3CC2=O)N4C(=O)C(=O)C2(COC(C)=O)CCCC2)c1` (stereo not shown) [Compound 143], the pKi was 6.72.

Regarding `CCC(=O)OC1(C(=O)C(=O)N2C3CCCC2C2=CN(C4CCCC4)C(=O)CN2C3=O)CCCC1` (stereo not shown) [Compound 144], the pKi was 5.92.

For the molecule `COCC(=O)OC1(C(=O)C(=O)N2C3CCCC2C2=CN(C4CCCC4)C(=O)CN2C3=O)CCCC1` (stereo not shown) [Compound 145], the pKi is 5.77.

For `COC1(C(=O)C(=O)N2C3CCCC2C2=Cc4cc(C(F)(F)F)cc(C(F)(F)F)c4CN2C3=O)CCCC1` (stereo not shown) [Compound 146], the pKi was under 4.30.

Turning to `CC(C)C(=O)OC1(C(=O)C(=O)N2C3CCCC2C2=CN(C4CCCC4)C(=O)CN2C3=O)CCCC1` (stereo not shown) [Compound 150], the pKi was 5.82.

As to `COc1cc(OC)cc(N2C=C3C4CCCC(C(=O)N3CC2=O)N4C(=O)C(=O)C2(OC)CCCC2)c1` (stereo not shown) [Compound 151], the pKi is 6.28.

With `COCOCC1(C(=O)C(=O)N2C3CCCC2C2=CN(C4CCCC4)C(=O)CN2C3=O)CCCC1` (stereo not shown) [Compound 152], the pKi is 5.55.

For the molecule `COc1ccc(OC[C@@H]2CC[C@H](N3CC4CCCC(C3=O)N4C(=O)C(=O)c3cc(OC)c(OC)c(OC)c3)C2)cc1` (stereo partly shown) [Compound 153], the pKi was 6.28.

As for `C=CCC(CC=C)C(=O)OC[C@@H]1CC[C@H](N2CC3CCCC(C2=O)N3C(=O)C(=O)c2cc(OC)c(OC)c(OC)c2)C1` (stereo partly shown) [Compound 154], the pKi is 6.61.

Take `COc1cc(OC)cc(N2C=C3C4CCCC(C(=O)N3CC2=O)N4C(=O)C(=O)C(C)(C)c2ccccc2)c1` (stereo not shown) [Compound 155]: the pKi was 5.92.

As for `COc1cc(OC)cc(N2C=C3C4CCCC(C(=O)N3CC2=O)N4C(=O)C(=O)C2(c3ccccc3)CCCC2)c1` (stereo not shown) [Compound 156], the pKi was 5.82.

For `COc1cc(C(=O)C(=O)N2C3CCCC2C(=O)N(CCc2ccccc2)CC3)cc(OC)c1OC` (stereo not shown) [Compound 159, 1-(2-Oxo-3-phenethyl-3,10-diaza-bicyclo[4.3.1]dec-10-yl)-2-(3,4,5-trimethoxy-phenyl)-ethane-1,2-dione], the negative logarithm of the Ki (pKi) was 6.12.

Take `COc1cc(C(=O)C(=O)N2C3C=CN(CCCCc4ccccc4)C(=O)C2CCC3)cc(OC)c1OC` (stereo not shown) [Compound 162, 1-[2-Oxo-3-(4-phenyl-butyl)-3,10-diaza-bicyclo[4.3.1]dec-4-en-10-yl]-2-(3,4,5-trimethoxy-phenyl)-ethane-1,2-dione]: the pKi was 6.46.

Test system in a further data set: not given
Assay: not given
Conditions: not given
On to `COc1cc(C(=O)C(=O)N2C3CCCC2C(=O)N(CCCCc2ccccc2)C3=O)cc(OC)c1OC`, for which the melting point was in the range of 101 to 103 °C.
